Results taken from US20090117563A1, “Identification of TRPML3 (MCOLN3) as a Salty Taste Receptor and Use in Assays for Identifying Taste (Salty) Modulators and/or Therapeutics that Modulate Sodium Transport, Absorption or Excretion and/or Aldosterone and/or Vasopressin Production or Release” (priority 2007, published 2009).

Molecular target: T1, A419P TRPML3 (Homo sapiens, UniProt Q8TDD5, A419P)
T1 construct: expressed in transfected cells
T1 sequence (Q8TDD5 1-553 A419P): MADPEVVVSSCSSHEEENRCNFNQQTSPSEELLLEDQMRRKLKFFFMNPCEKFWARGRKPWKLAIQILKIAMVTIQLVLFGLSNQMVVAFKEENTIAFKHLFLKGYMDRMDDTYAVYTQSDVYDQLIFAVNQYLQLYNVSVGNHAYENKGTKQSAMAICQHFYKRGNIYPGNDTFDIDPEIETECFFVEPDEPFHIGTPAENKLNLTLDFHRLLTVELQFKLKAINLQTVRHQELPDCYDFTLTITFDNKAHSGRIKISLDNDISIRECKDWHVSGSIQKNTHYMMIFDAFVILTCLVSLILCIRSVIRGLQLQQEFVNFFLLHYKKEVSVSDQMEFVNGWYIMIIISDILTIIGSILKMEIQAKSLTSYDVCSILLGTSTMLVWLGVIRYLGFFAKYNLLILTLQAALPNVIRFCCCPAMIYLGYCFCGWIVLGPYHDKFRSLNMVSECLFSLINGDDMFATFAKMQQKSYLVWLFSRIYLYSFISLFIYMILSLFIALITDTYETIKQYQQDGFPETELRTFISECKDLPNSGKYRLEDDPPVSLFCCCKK
Assay: Whole cell voltage clamp, A419P TRPML3 stably expressed in CHO cells
Type: cell-based
Conditions: 1 mM GdCl3 compared to buffer alone
Source text: The whole cell voltage clamp technique is an electrophysiology method that measures the macroscopic electrical current flowing across the entire plasma membrane though protein channels. Live mammalian cells are placed in a special microscope chamber containing extracellular solution. Guided by a micromanipulator and under visual control, a small diameter glass pipette filled with an electrically conductive salt solution is first attached to the cell membrane using gentle negative pressure resulting in a high resistance gigaOhm seal. The membrane patch within the pipette is disrupted using further suction resulting in the whole cell patch clamp configuration. The whole cell patch clamp configuration allows the combined measurement of all ion channels proteins within the membrane or macroscopic current. Using the patch clamp amplifier in combination with the whole-cell patch clamp configuration allows the operator to control the voltage, or potential difference across the entire cell membrane, as well as the both the internal and external ionic composition of the cell. […]

## [Cl][Gd]([Cl])[Cl] [gadolinium, gadolinium chloride]
Listed as Gadolinium chloride
  effect on inward current: blocked
Listed as GdCl3
  effect on inward current: decrease in inward current
